The source of these data is patent EP0326331B1, “Substituted quinolines and cinnolines” (Dow AgroSciences LLC, priority 1988, dated 1989).

Holding throughout (format): in vivo
The test system of series [1] is Pseudoperonospora cubensis (downy mildew). Nature of the series: Test 1 greenhouse foliar spray screen, downy mildew on squash. Particulars: Test 1, foliar spray on squash, disease control rating at 400 ppm / 100 ppm; for pest or weed control at 400 ppm: Pseudoperonospora cubensis, foliar, read-out: DOWN MDEW.
In series [2] the test system is Erysiphe graminis tritici (powdery mildew). The experiment in a line: Test 1 greenhouse foliar spray screen, powdery mildew on wheat. Particulars: Test 1, foliar spray on wheat, disease control rating at 400 ppm / 100 ppm; for pest or weed control at 400 ppm: Blumeria graminis, foliar, read-out: POWD MDEW.
The test system of series [3] is Twospotted spider mites (Tetranychus urticae Koch). The experiment in a line: Mite/insect screen, SM. Particulars: percent mortality, foliar spray on squash; for mortality at 200 ppm / mortality at 400 ppm: Tetranychus urticae, foliar, read-out: SM RESULTS %. A digest of the protocol:
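Foliar spray to runoff (10 psi), 1 h drying; aqueous dilutions from acetone/alcohol emulsifier stock. Mortality (%) after standard exposure.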

The subject of series [4] is Pyricularia oryzae (rice blast). The experiment in a line: whole plant or invertebrate. Particulars: disease control rating at 400 ppm / 100 ppm; for pest or weed control at 400 ppm: Pyricularia oryzae, foliar, read-out: RICE BLAST, Test 1, foliar spray on rice.
The subject of series [5] is Botrytis cinerea (gray mold). Nature of the series: Test 1 greenhouse foliar spray screen, gray mold on grape berries. To be noted: Test 1, spray on grape berries, disease control rating at 400 ppm / 100 ppm; for pest or weed control at 400 ppm: Botrytis cinerea, foliar.
Series [6] concerns southern armyworm (Spodopetra eridania Cramer). The experiment in a line: Mite/insect screen, SAW. To be noted: percent mortality, foliar spray on squash; for mortality at 200 ppm / mortality at 400 ppm: Spodoptera eridania, foliar, read-out: SAW RESULTS %. The essentials:
(§1)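 Read-out: percent mortality after standard exposure periods. Test solutions were water dilutions of compound dissolved in acetone/alcohol (50:50) with emulsifier blends; leaves were sprayed to runoff on both surfaces and air-dried for one hour before exposure.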

Series [7] deals with Puccinia recondita tritici (leaf rust). The experiment in a line: Test 1 greenhouse foliar spray screen, leaf rust on wheat. Particulars: Test 1, foliar spray on wheat, disease control rating at 400 ppm / 100 ppm; for pest or weed control at 400 ppm: Puccinia recondita, foliar.
In series [8] the test system is corn rootworm. Nature of the series: Mite/insect screen, CRW. To be noted: percent mortality; for mortality at 12 ppm / mortality at 24 ppm: read-out: CRW RESULTS %. The essentials:
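Read-out: % mortality after standard exposure. Formulation: acetone/alcohol (50:50) with emulsifiers at 23 g and 13 g per liter, water-diluted to final test levels.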

The subject of series [9] is melon aphids (Aphis gossypii Glover). Nature of the series: Mite/insect screen, MA. Particulars: percent mortality, foliar spray on squash; for mortality at 200 ppm / mortality at 400 ppm: Aphis gossypii, foliar, read-out: MA RESULTS %. The essentials: as §1

For `Fc1cccc2c(OCCc3ccc(-c4ccccc4)cc3)ccnc12` [Example 263, 8-fluoro-4-[2-(1,1'-biphenyl)-4-yl-ethoxy]quinoline], the “DOWN MDEW” value in series [1] was “- (0-19% control at 400 ppm)”. In addition, the “POWD MDEW” value in series [2] is given as “+ (20-89% control at 400 ppm)”. For the same molecule, the “SM RESULTS %” value in series [3] (rate 200 ppm) and in series [3] (rate 400 ppm) was 0% throughout. For the same molecule, the “RICE BLAST” value in series [4] (Test 1, foliar spray on rice) is reported as “+ (20-89% control at 400 ppm)”. In series [5], the “GRAY MOLD” value is listed as “- (0-19% control at 400 ppm)”. Moreover, the “SAW RESULTS %” value in [6] (rate 200 ppm) and in [6] (rate 400 ppm) was 0% each time. For the same molecule, the “LEAF RUST” value in series [7] is reported as “+ (20-89% control at 400 ppm)”. Further, the “CRW RESULTS %” value in [8] (CRW rate 12.00 ppm) and in series [8] (CRW rate 24.00 ppm) was 0% throughout. Moreover, the “MA RESULTS %” value in series [9] (rate 200 ppm) and in series [9] (rate 400 ppm) was 0% each time.
As for `OCCc1ccc(CCOc2ccnc3c(F)cccc23)cc1` [Example 265, 8-fluoro-4-[2-[4-(2-hydroxyethyl)phenyl]ethoxy]quinoline], the pest or weed control at 400 ppm fell in the range of 0 to 19% in [1]; 0 to 19% in [2]; 90 to 100% in [4]; 0 to 19% in series [5]; 90 to 100% in series [7]. The mortality at 200 ppm in series [3] (rate 200 ppm), in [6] (rate 200 ppm) and in [9] (rate 200 ppm) was 0% throughout. The mortality at 400 ppm in series [3] (rate 400 ppm), in [6] (rate 400 ppm) and in series [9] (rate 400 ppm) was 0% throughout. The mortality at 12 ppm in [8] (CRW rate 12.00 ppm) worked out at 0%. Also, the mortality at 24 ppm in series [8] (CRW rate 24.00 ppm) stood at 0%.
`COC(C)CCOc1ccnc2c(F)cccc12` (centres unmarked) [Example 266, 8-fluoro-4-[3-methoxybutoxy]quinoline]: the pest or weed control at 400 ppm in series [1], in series [2], in series [4], in [5] and in series [7] was 0 to 19% in each case. Moreover, the mortality at 200 ppm in series [3] (rate 200 ppm), in series [6] (rate 200 ppm) and in series [9] (rate 200 ppm) was 0% each time. The mortality at 400 ppm in series [3] (rate 400 ppm), in series [6] (rate 400 ppm) and in [9] (rate 400 ppm) was 0% in each case. Moreover, the mortality at 12 ppm in series [8] (CRW rate 12.00 ppm) worked out at 0%. In addition, the mortality at 24 ppm in series [8] (CRW rate 24.00 ppm) worked out at 0%.
As for `C=CCCCOc1ccnc2c(F)cccc12` [Example 267, 8-fluoro-4-(4-pentenoxy)quinoline], the pest or weed control at 400 ppm in series [1] lay within 20 to 89%; in series [2] it was 90 to 100%; in series [4], 90 to 100%; in [5], 0 to 19%; in series [7], 90 to 100%. Also, the figures for the mortality at 200 ppm in series [3] (rate 200 ppm), in [6] (rate 200 ppm) and in series [9] (rate 200 ppm) were 40%, 0% and 20%, respectively. The mortality at 400 ppm in series [3] (rate 400 ppm) came out at 100%; in series [6] (rate 400 ppm), 0%; in [9] (rate 400 ppm), 100%. Also, in series [8] (CRW rate 12.00 ppm), the mortality at 12 ppm was found to be 0%. In [8] (CRW rate 24.00 ppm), the mortality at 24 ppm turned out to be 0%.
Take `Fc1cccc2c(NCCCCc3ccccc3)ccnc12` [Example 268, 8-fluoro-N-(4-phenylbutyl)-4-quinolinamine]: the pest or weed control at 400 ppm in series [1] fell in the range of 90 to 100%; in series [2] it was 20 to 89%; in series [4] it was 90 to 100%; in series [5] it was 0 to 19%; in [7] it was 90 to 100%. For the same molecule, the mortality at 200 ppm in series [3] (rate 200 ppm), in series [6] (rate 200 ppm) and in [9] (rate 200 ppm) was 0% throughout. Moreover, the mortality at 400 ppm in [3] (rate 400 ppm) came out at 80%; in [6] (rate 400 ppm), 0%; in [9] (rate 400 ppm) it was 0%. In addition, the mortality at 12 ppm in [8] (CRW rate 12.00 ppm) is 0%. Besides, in series [8] (CRW rate 24.00 ppm), the mortality at 24 ppm is 0%.
With `Fc1cccc2c(OCCc3ccccc3Cl)ccnc12` [Example 269, 4-[2-(2-chlorophenyl)ethoxy]-8-fluoroquinoline], the pest or weed control at 400 ppm in series [1] was in the range of 90 to 100%; in series [2], 90 to 100%; in series [4], 90 to 100%; in series [5] it was 0 to 19%; in [7], 90 to 100%. Further, the mortality at 400 ppm in [3] (rate 400 ppm), in [6] (rate 400 ppm) and in series [9] (rate 400 ppm) was 0% each time. In addition, the results for the mortality at 200 ppm in series [6] (rate 200 ppm) and in series [9] (rate 200 ppm) were 0% and 30%, respectively. Further, in [8] (CRW rate 12.00 ppm), the mortality at 12 ppm amounted to 0%. The mortality at 24 ppm in [8] (CRW rate 24.00 ppm) turned out to be 40%.
As to `CCC(COc1ccnc2c(F)cccc12)c1ccc(-c2ccccc2)cc1` (centres unmarked) [Example 270, 4-[2-[1,1'-biphenyl]-4-ylbutoxy]-8-fluoroquinoline], the pest or weed control at 400 ppm in series [1] lay within 0 to 19%; in series [2], 0 to 19%; in series [4] it was 20 to 89%; in series [5] it was 0 to 19%; in series [7], 0 to 19%. For the same molecule, the mortality at 200 ppm came out at 0% in series [3] (rate 200 ppm), 20% in [6] (rate 200 ppm) and 0% in series [9] (rate 200 ppm). Besides, the mortality at 400 ppm in series [3] (rate 400 ppm) was 80%; in series [6] (rate 400 ppm), 0%; in series [9] (rate 400 ppm), 0%. Also, the mortality at 12 ppm in [8] (CRW rate 12.00 ppm) is 0%. In addition, the mortality at 24 ppm in series [8] (CRW rate 24.00 ppm) was 0%.
On to `CC(C)(C)c1ccc(CCCNc2ccnc3c(F)cccc23)cc1` [Example 271, N-[3-[4-(t-butyl)phenyl]propyl]-8-fluoro-4-quinolinamine], for which the pest or weed control at 400 ppm in series [1] was 90 to 100%; in [2] it was 0 to 19%; in [4], 90 to 100%; in series [5] it was 0 to 19%; in series [7] it was 20 to 89%. The mortality at 200 ppm in series [3] (rate 200 ppm), in [6] (rate 200 ppm) and in [9] (rate 200 ppm) was 0% each time. Further, the mortality at 400 ppm in [3] (rate 400 ppm), in series [6] (rate 400 ppm) and in series [9] (rate 400 ppm) was 0% throughout. Also, the mortality at 12 ppm in [8] (CRW rate 12.00 ppm) was determined as 0%. The mortality at 24 ppm in [8] (CRW rate 24.00 ppm) is 0%.
With `Fc1cccc2c(OCCCCOc3ccccc3)ccnc12` [Example 272, 8-fluoro-4-(4-phenoxybutoxy)quinoline], the pest or weed control at 400 ppm in series [1] lay within 20 to 89%; in [2] it was 0 to 19%; in series [4], 20 to 89%; in series [5] it was 0 to 19%; in series [7], 0 to 19%. In addition, the mortality at 200 ppm in series [3] (rate 200 ppm), in [6] (rate 200 ppm) and in series [9] (rate 200 ppm) was 0% throughout. Moreover, the mortality at 400 ppm in series [3] (rate 400 ppm) stood at 20%; in series [6] (rate 400 ppm), 0%; in [9] (rate 400 ppm), 0%. Besides, the mortality at 12 ppm in series [8] (CRW rate 12.00 ppm) was 0%. Besides, the mortality at 24 ppm in series [8] (CRW rate 24.00 ppm) was 0%.
As to `CC(=O)Oc1ccc(CCN(C(C)=O)c2ccnc3c(F)cccc23)cc1` [Example 273, N-[2-(4-acetoxyphenyl)ethyl]-N-(8-fluoro-4-quinolinyl)acetamide], the pest or weed control at 400 ppm was 20 to 89% in series [1]; 20 to 89% in series [2]; 90 to 100% in [4]; 0 to 19% in series [5]; 20 to 89% in series [7]. Also, the mortality at 400 ppm in series [3] (rate 400 ppm), in series [6] (rate 400 ppm) and in series [9] (rate 400 ppm) was 0% throughout. Also, the mortality at 24 ppm in series [8] (CRW rate 24.00 ppm) amounted to 0%.
